Values after ≈ are worked out from the molar mass of the structure shown.
Tests used:
anti-3-CQA mAb [1] = assay: mAb-based indirect competitive chemiluminescence enzyme immunoassay (ic-CLEIA); format: binding, mouse; conditions: for CR (cross-reactivity) = IC50 3-CQA / IC50 analogue x 100%: ic-CLEIA; for IC50: 3-CQA-OVA coating 2 μg/mL, mAb 1:8000, deionized water pH 7.0
Procedure: To establish the optimal conditions for the ic-CLEIA, a checkerboard titration was employed. The protocols of the ic-CLEIA were performed as previously ([20]). A gradient concentration of 3-CQA-OVA (0.125, 0.5, 2.0, and 8.0 μg/mL; 100 μL/well) was diluted in PBS and added to a 96-well white microliter plate (Costar Inc., Cambridge, MA, United States), followed by incubation at 4°C overnight. After washing each well three times with PBST (PBS solution containing 0.05% Tween-20, pH 7.4), the plates were blocked with 5% skimmed milk powder (SMP) (Sigma, St Louis, MO, United States) in PBS (200 μL/well) at 37°C for 2 h. Subsequently, different concentrations of mAb (1:2000, 1:4000, 1:8000, 1:16000, 1:32000, 1:64000, and 1:128000; 100 μL/well) were added to different wells, followed by incubation at 4°C for 50 min. For ic-CLEIA standard curve, 3-CQA standard solutions in PBS (0.01, 0.025, 0.05, 0.1, 0.25, 0.5, 1, 2.5, 5, 10, 25, 50, and 100 ng/mL; 50 μL) and the diluted antibody in PBS (50 μL) were added to each well and incubated at 4°C for 50 min. After a washing step, goat anti-mouse IgG-horse radish peroxidase (HRP) (SinoBiological, Beijing, China) dissolved in PBS supplemented with 2% SMP was added at a 1:5000 dilution (100 μL/well), and the plates were incubated at 37°C for 50 min. Afterward, 100 μL of chemiluminescent substrate solution (Heliosense Biotechnology, Xiamen, China) was pipetted into each well, and the emitted photons were immediately read at 595 nm using a Tecan Infinite F200 reader (Mannedorf, Switzerland). To investigate the effects of different factors on the overall reaction system, different pH (6.5, 7.0, 7.4, and 8.0), methanol aqueous solution (5, 10, 30, and 50%; v/v), Tween-20 (0.01, 0.02, 0.04, 0.06, and 0.08%, v/v), sodium chloride solution (0.1 M, 0.2 M, and 0.4 M) were prepared and tested.
All incubation steps were performed in the dark throughout the procedure. The competitive inhibition curves for 3-CQA were plotted using GraphPad Prism 8.0 (GraphPad Inc., San Diego, CA).
To evaluate CR, the structural analogs of 3-CQA including 4-CQA, 5-CQA, 3,5-dicaffeoylquinic acid, 4,5-dicaffeoylquinic acid, 3,4-dicaffeoylquinic acid, and tea polyphenols (DESITE Biotech, Chengdu, China) were used in place of 3-CQA within the ic-CLEIA assay. The respective CR values of these analogs were determined using the following equation: […]

anti-3-CQA mAb [2] = assay: indirect competitive ELISA (ic-ELISA); format: binding, mouse; conditions: same conditions as ic-CLEIA
Procedure: The protocols of ic-ELISA are similar to the ic-CLEIA, 3-CQA-OVA antigen, anti-3-CQA mAb, and goat anti-mouse IgG-HRP were successively incubated under optimized conditions. 3-CQA standard solutions in PBS (1, 2, 4, 8, 16, 32, 64, 128, 256, and 512 ng/mL; 50 μL) and the diluted antibody in PBS (50 μL) were added to each well and incubated at 4°C for 50 min. Subsequent to four washes, 3, 3′, 5, 5′-tetramethylbenzidine (TMB, 100 μL/well) solution was added and incubated at 37°C for 10 min. The reaction was then terminated by adding 2 M H2SO4 (50 μL/well), and the absorbance was measured at the wavelength of 450 nm (OD450). The competitive inhibition curve was plotted using Lg[10*C3-CQA (ng/mL)] as the abscissa and B/B0 (B0 is the OD450 value without standard, and B is the OD450 value with standard present) as the ordinate.

| SMILES | CR (cross-reactivity) = IC50 3-CQA / IC50 analogue x 100% (anti-3-CQA mAb [1]) | IC50 (anti-3-CQA mAb [1]; optimized conditions) | IC20 (lower end of linear range) (anti-3-CQA mAb [1]; optimized conditions) | IC80 (upper end of linear range) (anti-3-CQA mAb [1]; optimized conditions) | calibration / linear / detection range (IC20-IC80) (anti-3-CQA mAb [1]; optimized conditions) | limit of detection (LOD, IC10) (anti-3-CQA mAb [1]; optimized conditions) | IC50 (anti-3-CQA mAb [2]) | LOD (anti-3-CQA mAb [2]) | linear / detection range (anti-3-CQA mAb [2]) |
| --- | --- | --- | --- | --- | --- | --- | --- | --- | --- |
| O=C(/C=C/c1ccc(O)c(O)c1)OC1CC(O)(C(=O)O)CC(O)C1OC(=O)/C=C/c1ccc(O)c(O)c1 (stereo not shown) [3,4-dicaffeoylquinic acid] | 2.10% | 0.14173 µg/mL | – | – | – | – | – | – | – |
| O=C(/C=C/c1ccc(O)c(O)c1)OC1CC(O)(C(=O)O)CC(OC(=O)/C=C/c2ccc(O)c(O)c2)C1O (stereo not shown) [3,5-dicaffeoylquinic acid] | 10.71% | 0.02774 µg/mL | – | – | – | – | – | – | – |
| O=C(C=Cc1ccc(O)c(O)c1)OC1CC(O)(C(=O)O)CC(O)C1O (stereo not shown) [3-CQA, 3-caffeoylquinic acid] | 100.00% | 0.00297 µg/mL | 0.00064 µg/mL | 0.01375 µg/mL | 0.00064 to 0.01375 µg/mL | 0.00039 µg/mL | 0.03606 µg/mL (≈ 0.102 µM) | 6.71 ng/mL | 10.21 to 127.36 ng/mL |
| O=C(/C=C/c1ccc(O)c(O)c1)OC1CC(O)(C(=O)O)CC(O)C1OC(=O)/C=C/c1ccc(O)c(O)c1 (stereo not shown) [4,5-dicaffeoylquinic acid] | 0.31% | 0.97156 µg/mL | – | – | – | – | – | – | – |
| O=C(/C=C/c1ccc(O)c(O)c1)OC1C(O)CC(O)(C(=O)O)CC1O (stereo not shown) [4-CQA, 4-caffeoylquinic acid] | 0.62% | 0.48062 µg/mL | – | – | – | – | – | – | – |
| O=C(/C=C/c1ccc(O)c(O)c1)OC1CC(O)(C(=O)O)CC(O)C1O (stereo not shown) [5-CQA, 5-caffeoylquinic acid] | 1.81% | 0.16444 µg/mL | – | – | – | – | – | – | – |

— article PMC11371738, “Development of an ic-CLEIA for precise detection of 3-CQA in herbs and patent medicines: ensuring quality control and therapeutic efficacy” (Frontiers in Nutrition, 2024)
